One experiment has as its system A498. Put plainly: NCI-60 screening, Renal Cancer. It is filed as cell-based, human.
A further experiment has as its system UO-31. Put plainly: NCI-60 screening, Renal Cancer. It is filed as cell-based, human.
The test system of a further experiment is SNB-19. Description: NCI-60 screening, CNS Cancer. It is filed as cell-based, human.
The test system of experiment [1] is MDA-MB-231 (TNBC) Xenograft. Put plainly: Tumor xenograft study, MDA-MB-231. It is filed as in vivo, mice. The method, then: Uniform suspensions of human breast cancer MDA-MB-231 and human ovarian cancer IGROV1 cells (2×10^6) in 100 μL (0.02 carboxymethyl cellulose in phosphate buffered saline) were injected subcutaneously into the right and left flanks of 4- to 5-week-old female athymic nude mice (Charles River Laboratories). After 10 days, when the tumor […] reaches 100 mm^3, the mice were randomly allocated to 3 groups of each containing 6 animals. […] All drug was suspended in PBS followed by sonication (15 seconds with an intermittent interval of 5 seconds) for 1 minute. Tumors were allowed to reach palpability before drug intervention. Tumor size was measured every 3 days using digital Vernier Calipers and tumor volume was calculated using the ellipsoid formula [D×(d2)]/2, where D is the large diameter of the tumor and d represents the small diameter. On day 31, the mice were euthanized and tumors were harvested for protein and gene expression studies. […] FIG. 6B depicts a graph of tumor volume vs. time for the administration of EC300 at 2.5 mg/kg twice weekly in the MDA-MB-231 (TNBC) Xenograft. […] FIG. 7 depicts a graph of tumor volume vs. time for the administration of EC300 at 5 mg/kg 5 days per week in the IGROV1 (Ovarian) Xenograft. […] STAT3 phosphorylation is reduced in tumors that underwent treatment compared to control which is an indication of LIF downstream target.

For another experiment, the system named is OVCAR-4. Description: NCI-60 screening, Ovarian Cancer. The format is cell-based, human.
The next experiment relates to MDA-MB-435. Put plainly: NCI-60 screening, Melanoma. It is filed as cell-based, human.
The next experiment has as its system MOLT-4. Description: NCI-60 screening, Leukemia. The format is cell-based, human.
A further experiment concerns SMAD. Description: Phosphorylation of SMAD. The format is cell-based. To be noted: thorough blocking TGF-beta.
A further experiment relates to IGROV1. Put plainly: NCI-60 screening, Ovarian Cancer. The format is cell-based, human. How it is done: Additional four, 10-fold or ½ log serial dilutions are made to provide a total of five drug concentrations plus control.
For adherent cells, the assay is terminated by the addition of cold TCA. Cells are fixed in situ by the gentle addition of 50 μl of cold 50% (w/v) TCA (final concentration, 10% TCA) and incubated for 60 minutes at 4° C. The supernatant is discarded, and the plates are washed five times with tap water and air dried. Sulforhodamine B (SRB) solution (100 μl) at 0.4% (w/v) in 1% acetic acid is added to each well, and plates are incubated for 10 minutes at room temperature. After staining, unbound dye is removed by washing five times with 1% acetic acid and the plates are air dried. […] Using the seven absorbance measurements [time zero, (Tz), control growth, (C), and test growth in the presence of drug at the five concentration levels (Ti)], the percentage growth is calculated at each of the drug concentrations levels. […]
Three dose response parameters are calculated for each experimental agent. […] The drug concentration resulting in total growth inhibition (TGI) is calculated from Ti=Tz. […] Values are calculated for each of these three parameters if the level of activity is reached; however, if the effect is not reached or is exceeded, the value for that parameter is expressed as greater or less than the maximum or minimum concentration tested.

In the next experiment the test system is HOP-62. Put plainly: NCI-60 screening, Non-Small Cell Lung Cancer. It is filed as cell-based, human.
In a further experiment the test system is HL-60(TB). Put plainly: NCI-60 screening, Leukemia. The format is cell-based, human.
The next experiment concerns SW-620. Description: NCI-60 screening, Colon Cancer. It is filed as cell-based, human.

The values below come from patent US20200087340A1, “LIF/LIFR ANTAGONIST IN ONCOLOGY AND NONMALIGNANT DISEASES” (Evestra, Inc., priority 2018, published 2020).

As to `C#CC(F)(F)[C@]1(O)CCC2C3CCC4=CC(=O)CCC4=C3C(c3ccc(C4CC4)cc3)C[C@@]21C` (stereo partly drawn) [EC330, 17α-(1,1-difluoro-2-propyn-1-yl)-17β-hydroxy-11β-[4-p-(cyclopropyl)phenyl]estra-4,9-dien-3-one], the “TGI (log10TGI)” value is reported as −6.01 with A498; under −8.00 in the experiment on UO-31; over −4.00 in the experiment on SNB-19; over −4.00 with OVCAR-4; −5.03 in the experiment on MDA-MB-435; −5.30 in the experiment with MOLT-4. Further, the “TGI (log10TGI)” value in the experiment on IGROV1 is on record as under −8.00; in the experiment with HOP-62 it was −6.79; in the experiment with HL-60(TB), under −8.00; in the experiment on SW-620, −4.79. In addition, the “apoptosis in xenograft tumors” value in experiment [1] (MDA-MB-231 breast cancer xenograft tumors) was “induced apoptosis dose dependently”. The tumor growth result in experiment [1] (human triple negative breast cancer (TNBC) model) is listed as “significantly reduced”. Moreover, the “phosphorylation of SMAD” value in the experiment on SMAD is recorded as “indirectly diminish the phosphorylation of SMAD”.
